Test results: patent EP2396020B1, “NOVEL ANTIMICROBIAL PEPTIDES” (Institute Of Organic Chemistry And Biochemistry As CR, …, priority 2009, dated 2010)
Peptide text beside a SMILES is read from it.

Columns and labels:
[1] = Determination of hemolytic activity; assay type: cell-based; conditions: rat red blood cells (5% suspension), 1 h at 37°C, physiological solution, read-out: hemolytic activity LC50
Procedure: (§1) The peptides in the concentration (1-200 µM) were incubated with rat red blood cells (5%) for 1 h at 37°C in a physiological solution at a final volume of 0.2 ml The samples were then centrifuged for 5 min at 250 g, and the absorbance of the supernatant was determined at 540 nm. Supernatants of red blood cells suspended in physiological solution and in 0.2% TRITON X100 in physiological solution served as controls for zero hemolysis (blank) and 100% hemolysis, respectively.

[2] = system: Bacillus subtilis; conditions: LB broth, 37°C, 20 h
Procedure: (§2) Antimicrobial activity was determined as a quantitative minimum inhibitory concentration (MIC) by observing bacterial growth in the presence of different concentrations of tested peptides. Mid-exponential phase bacteria were added to the solutions of the tested antimicrobial peptide at different concentrations (0.5 to 100 µM) in LB broth in multi-well plates. The plates were incubated at 37°C for 20 h while being continuously shaken in a Bioscreen C instrument (Finland). The absorbance was measured at 540 nm every 15 min and each peptide was tested at least 3 times in duplicate. In the experiments was routinely used 1.2 10^3 - 7.5 10^3 CFU of bacteria. Tetracycline in a concentration range of 0.1 - 50 µM was tested as a standard.

[3] = system: Staphylococcus aureus; conditions: LB broth, 37°C, 20 h
Procedure: as §2

[4] = system: Escherichia coli; conditions: LB broth, 37°C, 20 h
Procedure: as §2

[5] = system: Pseudomonnas aeruginosa; conditions: LB broth, 37°C, 20 h
Procedure: as §2

[6] = system: rat red blood cells; assay: Determination of hemolytic activity; assay type: cell-based; conditions: rat red blood cells (5%), 1 h at 37°C, physiological solution
Procedure: as §1

| SMILES | HC50 at 1 h [1] [µM] | antimicrobial activity MIC B.s. [2] | antimicrobial activity MIC S.a. [3] | antimicrobial activity MIC E. c. [4] | antimicrobial activity MIC P.a. [5] | hemolytic activity LC50 [6] |
| --- | --- | --- | --- | --- | --- | --- |
| CC[C@H](C)[C@H](NC(=O)[C@H](CC(C)C)NC(=O)[C@H](Cc1c[nH]cn1)NC(=O)CNC(=O)[C@H](CC(C)C)NC(=O)[C@@H](NC(=O)[C@H](CCCCN)NC(=O)[C@H](CO)NC(=O)[C@H](Cc1c[nH]c2ccccc12)NC(=O)[C@H](CCSC)NC(=O)CN)[C@@H](C)CC)C(=O)N[C@@H](CCCNC(=N)N)C(N)=O [(1), H-Gly-Met-Trp-Ser-Lys-Ile-Leu-Gly-His-Leu-Ile-Arg-NH2] (H-GMWSKILGHLIR-NH2) | 80 | 0,7 µM | 7,4 µM | 3,8 µM | 45 µM |  |
| CC[C@H](C)[C@H](NC(=O)[C@H](CC(C)C)NC(=O)[C@H](Cc1c[nH]cn1)NC(=O)CNC(=O)[C@H](CC(C)C)NC(=O)[C@@H](NC(=O)[C@H](CCCCN)NC(=O)[C@H](CCCCN)NC(=O)[C@H](Cc1c[nH]c2ccccc12)NC(=O)[C@H](CCSC)NC(=O)CN)[C@@H](C)CC)C(=O)N[C@@H](CCCNC(=N)N)C(N)=O [(1-A/1), H-Gly-Met-Trp-Lys-Lys-Ile-Leu-Gly-His-Leu-Ile-Arg-NH2] (H-GMWKKILGHLIR-NH2) | 93 | 1,1 µM | 6,0 µM | 1,8 µM | 12,5 µM |  |
| CC[C@H](C)[C@H](NC(=O)[C@H](CCCCN)NC(=O)[C@H](CO)NC(=O)[C@H](Cc1c[nH]c2ccccc12)NC(=O)[C@H](CCSC)NC(=O)CN)C(=O)N[C@@H](CC(C)C)C(=O)NCC(=O)N[C@@H](Cc1c[nH]cn1)C(=O)N[C@@H](CC(C)C)C(=O)N[C@@H](CCCCN)C(=O)N[C@@H](CCCNC(=N)N)C(N)=O [(1-A/2), H-Gly-Met-Trp-Ser-Lys-Ile-Leu-Gly-His-Leu-Lys-Arg-NH2] (H-GMWSKILGHLKR-NH2) | > 200 | 2,2 µM | 100 µM | 28 µM | 90 µM |  |
| CC[C@H](C)[C@H](NC(=O)[C@H](CC(C)C)NC(=O)[C@H](Cc1c[nH]cn1)NC(=O)CNC(=O)[C@H](CC(C)C)NC(=O)[C@@H](NC(=O)[C@H](CCCCN)NC(=O)[C@H](CO)NC(=O)[C@H](Cc1c[nH]c2ccccc12)NC(=O)[C@H](CCSC)NC(=O)CN)[C@@H](C)CC)C(=O)N[C@@H](CCCCN)C(N)=O [(1-A/3), H-Gly-Met-Trp-Ser-Lys-Ile-Leu-Gly-His-Leu-Ile-Lys-NH2] (H-GMWSKILGHLIK-NH2) | 111 | 0,75 µM | 12,5 µM | 6.0 µM | 50 µM |  |
| CC[C@H](C)[C@H](NC(=O)[C@H](CC(C)C)NC(=O)[C@H](CCCCN)NC(=O)CNC(=O)[C@H](CC(C)C)NC(=O)[C@@H](NC(=O)[C@H](CCCCN)NC(=O)[C@H](CCCCN)NC(=O)[C@H](Cc1c[nH]c2ccccc12)NC(=O)[C@H](CCCCN)NC(=O)CN)[C@@H](C)CC)C(=O)N[C@@H](CCCNC(=N)N)C(N)=O [(1-A/4), H-Gly-Lys-Trp-Lys-Lys-Ile-Leu-Gly-Lys-Leu-Ile-Arg-NH2] (H-GKWKKILGKLIR-NH2) | > 200 | 1,3 µM | 60,0 µM | 1,8 µM | 14,2 µM |  |
| CC[C@H](C)[C@H](NC(=O)[C@H](Cc1c[nH]cn1)NC(=O)[C@H](CCCCN)NC(=O)[C@H](CC(C)C)NC(=O)[C@H](CC(C)C)NC(=O)[C@H](CO)NC(=O)[C@H](CCSC)NC(=O)[C@H](Cc1c[nH]c2ccccc12)NC(=O)[C@H](CCCCN)NC(=O)CN)C(=O)N[C@@H](CC(C)C)C(=O)N[C@@H](CCCCN)C(N)=O [(2), H-Gly-Lys-Trp-Met-Ser-Leu-Leu-Lys-His-Ile-Leu-Lys-NH2] (H-GKWMSLLKHILK-NH2) | 80 | 0,8 µM | 7,5 µM | 2,2 µM | 33 µM |  |
| CC[C@H](C)[C@H](NC(=O)[C@H](Cc1c[nH]cn1)NC(=O)[C@H](CCCCN)NC(=O)[C@H](CC(C)C)NC(=O)[C@H](CC(C)C)NC(=O)[C@H](CO)NC(=O)[C@H](CCCCN)NC(=O)[C@H](Cc1c[nH]c2ccccc12)NC(=O)[C@H](CCCCN)NC(=O)CN)C(=O)N[C@@H](CC(C)C)C(=O)N[C@@H](CCCCN)C(N)=O [(2-A/1), H-Gly-Lys-Trp-Lys-Ser-Leu-Leu-Lys-His-Ile-Leu-Lys-NH2] (H-GKWKSLLKHILK-NH2) | 95 | 1,5 µM | 25 µM | 3 µM | 12,5 µM |  |
| CC[C@H](C)[C@H](NC(=O)[C@H](Cc1c[nH]cn1)NC(=O)[C@H](CCCCN)NC(=O)[C@H](CC(C)C)NC(=O)[C@H](CC(C)C)NC(=O)[C@H](CCCCN)NC(=O)[C@H](CCSC)NC(=O)[C@H](Cc1c[nH]c2ccccc12)NC(=O)[C@H](CCCCN)NC(=O)CN)C(=O)N[C@@H](CC(C)C)C(=O)N[C@@H](CCCCN)C(N)=O [(2-A/2), H-Gly-Lys-Trp-Met-Lys-Leu-Leu-Lys-His-Ile-Leu-Lys-NH2] (H-GKWMKLLKHILK-NH2) |  | 0,8 µM | 4,5 µM | 2,5 µM | 10,7 µM | 87,5 µM |
| CC[C@H](C)[C@H](NC(=O)[C@H](CCCCN)NC(=O)[C@H](CCCCN)NC(=O)[C@H](CC(C)C)NC(=O)[C@H](CC(C)C)NC(=O)[C@H](CO)NC(=O)[C@H](CCSC)NC(=O)[C@H](Cc1c[nH]c2ccccc12)NC(=O)[C@H](CCCCN)NC(=O)CN)C(=O)N[C@@H](CC(C)C)C(=O)N[C@@H](CCCCN)C(N)=O [(2-A/3), H-Gly-Lys-Trp-Met-Ser-Leu-Leu-Lys-Lys-Ile-Leu-Lys-NH2] (H-GKWMSLLKKILK-NH2) | 126 | 1,2 µM | 6,3 µM | 2,7 µM | 13,8 µM |  |
